Measurements: article PMC3529812 (Journal of immunology (Baltimore, Md. : 1950), 2012)

Experiments:
[1] = system: 20S proteasome; test: 20S proteasome cleavage assay with LC-MS of cleavage products; assay type: biochemical, human; conditions: 10 μM lactacystin; substrate 23 mer; compared to uninhibited proteasome reaction
[2] = biological target: HLA-A2 (Homo sapiens, UniProt P04439, D140Y/D185E/D98H/E176V/E277Q/G131W/G231S/I119V/I121R/I166T/I218V/L300P/L318F/N151K/N90K/P208A/P217A/Q86G/Q94H/R138H/R169H/T345S); test: T2 HLA-A2 stabilization assay; assay type: cell-based

Row | Compound | Effect of lactacystin on generation of p373–382 by proteasome [1] | EC50 [2]
1 | CC(=O)N[C@@H](CSC(=O)[C@]1([C@@H](O)C(C)C)NC(=O)[C@H](C)[C@@H]1O)C(=O)O [lactacystin] | not completely blocked | –
2 | CC(C)C[C@H](NC(=O)[C@@H](N)CO)C(=O)N[C@@H](C)C(=O)N[C@@H](Cc1ccccc1)C(=O)N[C@@H](CC(C)C)C(=O)N1CCC[C@H]1C(=O)N[C@@H](CCC(=O)O)C(=O)N[C@@H](CO)C(=O)N[C@@H](Cc1ccccc1)C(=O)N[C@@H](CC(=O)O)C(=O)O [p373–382] | – | 1800 nM
